Test results from patent US11565005B2, “Dota-hapten compositions for anti-dota/anti-tumor antigen bispecific antibody pretargeted radioimmunotherapy” (MEMORIAL SLOAN KETTERING CANCER CENTER, priority 2017, dated 2023).

Key:
[1] = Biodistribution of [^225Ac]Proteus-DOTA alone in tumor-free nude mice; format: in vivo; details: hapten alone, 1 h p.i.
Text: Carcass radioactivity was not collected during this study.

[2] = tested on: HER2-expressing BT-474 xenografts; experiment: Ex vivo biodistribution of BsAb/hapten complex or hapten alone in BT-474 tumor-bearing mice; set-up: species or system athymic nude mice; details: 4 h after injection
Protocol: The ^225Ac-Proteus-DOTA haptens were injected intravenously via the lateral tail vein and euthanized 4 hours later for organ collection and radioactivity assessment. Asterisk (*) indicates levels below the limit of detection. Two groups of nude mice with subcutaneous BT474 tumors (3 mice each) were treated with either: [^225Ac Proteus-DOTA] only (0.51 nmol/mouse; ˜30 nCi of ^225Ac/mouse) or PD10-purified [anti-HER2-C825/[^225Ac Proteus-DOTA] complex (estimate 1.79 nmol of ^225Ac Proteus-DOTA/mouse, 1.0 nmol of antibody/mouse; 100 nCi ^225Ac/mouse), and sacrificed 4 h post-injection for ex vivo biodistribution assay. The tissue samples were read in the gamma counter the following day at equilibrium.
Biodistribution Experiments.
To determine whether isolated BsAb/[^225Ac]Proteus-DOTA complexes could target tumors in vivo, a biodistribution assay was conducted after SEC purification with two groups of athymic nude mice (n=3) bearing subcutaneous HER2-expressing BT-474 xenografts. […]

anti-HER2-C825 = experiment: In vitro mixing with DOTA-PRIT BsAb followed by size-exclusion chromatography; format: binding
Protocol: In vitro Mixing of [^225Ac]Proteus-DOTA with a DOTA-PRIT BsAb, followed by In vivo Targeting Studies. […] After one week of storage of [^225Ac]Proteus-DOTA at room temperature, an in vitro mixing experiment consisting of mixing 145 μL of 6.91 mg/mL of anti-HER2-C825 (4.8 nmol of BsAb or 9.6 nmol of C825) and 90 μL of [^225Ac]Proteus-DOTA (488 nCi/8.64 nmol) for 1 h at room temperature (final volume 235 μL). As a control, 1 mg of trastuzumab (6.67 nmol) with also mixed in vitro with 90 μL of [^225Ac]Proteus-DOTA (468 nCi/8.64 nmol) in the same manner as the anti-HER2-C825. These two solutions were run separately on PD-10 size-exclusion columns pre-equilibrated with saline+1% human serum albumin, and were compared with the column elution of 90 μL (488 nCi/8.64 nmol) of [^225Ac]Proteus-DOTA only. Elution fractions were counted on the gamma-counter using an open window setting.
This was done by mixing the BsAb (˜210 kD) in slight molar excess to [^225Ac]Proteus-DOTA (9.6 nmol of C825/8.6 nmol of [^225Ac]Proteus-DOTA), followed by incubation at room temperature for 1 hour.

[3] = Dose-escalation toxicology study of [^225Ac]Proteus-DOTA in healthy nude mice; format: in vivo
Protocol: The maximum tolerated dose was not reached. Treated animal weights plotted as the percentage of pre-treatment baseline weight. Asterisk (*) indicates mouse required euthanasia or was discovered deceased. Data is presented as mean ±SD.
Toxicology study of [^225Ac]Pr-DOTA in healthy mice. A dose-escalation toxicity study was performed to evaluate any morbidity and histopathological damage attributed to [^225Ac]Proteus-DOTA. […] Unscheduled mortality (mice found dead or found sick and euthanized) were submitted for pathology. […] A total of three unscheduled mortalities occurred: 2/5 from the 0.5 μCi dose group; one on day 36 that was submitted for necropsy because of 20% weight loss-no gross pathologic or histopathologic lesions were observed, and no significant findings were observed on hematology and serum chemistry; and by the time the other mouse was found dead on day 144, necropsy was not possible. In addition, one mouse from group 8 μCi was euthanized after 123 days with a Staphylococcus bacterial infection. The significant findings in this mouse were histiocytic and eosinophilic myocardis, eosinophilic interstitial pneumonia, soft tissue hemorrhages, marked thrombocytopenia, and mild anemia with elevation of reticulocytes. The myocarditis, pnemonia, and mild anemia were related to some findings observed at scheduled sacrifice. Such thrombocytopenia with secondary hemorrhages was not observed in other mice in this study. Serum chemistry was unremarkable.

[4] = n = 3, listed as [^225Ac] Proteus-DOTA

O=C([O-])CN1CCN(CC(=O)[O-])CCN(CC(=O)NCCOCCOCCOCCOCCNC(=S)Nc2ccc(CC3CN(CC(=O)[O-])CCN(CC(=O)[O-])CCN(CC(=O)[O-])CCN3CC(=O)[O-])cc2)CCN(CC(=O)[O-])CC1.[225Ac+3].[Lu+3] (centres unmarked) [[^225Ac]Proteus-DOTA]
Blood uptake ([1]; n = 3): 0.31±0.54 % ID/g
Bone uptake ([1]; n = 3): 0.45 ± 0.79 % ID/g
Kidneys uptake ([1]; n = 3): 0.63±0.41 % ID/g
Large Intestine uptake ([1]; n = 3): 0.02 ± 0.02 % ID/g
Liver uptake ([1]; n = 3): 0.04±0.06 % ID/g
Muscle uptake ([1]; n = 3): 0.98 ± 0.91 % ID/g
Small Intestine uptake ([1]; n = 3): 0.16 ± 0.26 % ID/g
Spleen uptake ([1]; n = 3): 0.04 ± 0.06 % ID/g
Stomach uptake ([1]; n = 3): 0.24 ± 0.38 % ID/g
Blood uptake [1, 4]: 0.31 ± 0.54 % ID/g
Kidneys uptake [1, 4]: 0.63 ± 0.41 % ID/g
Liver uptake [1, 4]: 0.01 ± 0.02 % ID/g
uptake in all assayed tissues [2]: ≤ 2 % ID/g
tumor accumulation ([2]; BT-474 xenograft, i.v., n=3): 0.50±0.34 % ID/g
remaining activity recovered in elution fractions between 4.6-7.1 mL (anti-HER2-C825; PD-10 size-exclusion column): 90%
recovered ^225Ac-activity eluting within the first 4.1 mL (anti-HER2-C825; PD-10 size-exclusion column after 1 h mixing at room temperature): 9.3%
toxicity (defined as >10% weight loss) ([3]; 0.25-8 μCi/mouse, 145 days): no toxicity was observed
mice affected by histiocytic and eosinophilic inflammation ([3]; 0.25 μCi): 0/5
mice affected by histiocytic and eosinophilic inflammation ([3]; 0.5 μCi): 0/4
unscheduled mortalities ([3]; 0.5 μCi dose group (day 36 and day 144)): 2/5
mice affected by histiocytic and eosinophilic inflammation ([3]; 1 μCi): 0/5
mice affected by histiocytic and eosinophilic inflammation ([3]; 2 μCi): 1/5
mice affected by histiocytic and eosinophilic inflammation ([3]; 4 μCi): 1/5
mice affected by histiocytic and eosinophilic inflammation ([3]; 8 Ci group): 3/5
unscheduled mortalities (euthanized, Staphylococcus bacterial infection) ([3]; 8 μCi group, after 123 days): one
organ weights at necropsy ([3]; 145 days, varying dose levels): No significant group differences
unscheduled mortalities, total ([3]; all dose groups, 145 days): three
radiation-induced histologic organ damage at necropsy ([3]; any dose level, 145 days): no radiation-induced histologic organ damage
effect on serum chemistry ([3]; any dose level, n=29): No effect
overall toxicity, acute or chronic radiation damage to normal tissues ([3]; doses as high as 8 μCi (296 kBq)/mouse): nontoxic
decrease of red blood cells mass ([3]; highest dose group (8 μCi)): ~10%
maximum tolerated dose ([3]; single i.v. doses 0.25-8 μCi/mouse): not reached
